Drawing on PubChem BioAssay AID624167 (Sanford-Burnham Center for Chemical Genomics, 2012), this text covers IC50 for eleven molecules.

As a reminder, the IC50 is the concentration that gives 50% inhibition.

Activity calls are given as the source filed them.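 How the source made its calls: active means mean IC50 for reducing PEG3 promoter reporter signal at or below a set limit, with IC50 above the limit in both counter screens; inactive means the rest, including counter screen hits.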

Assay [1] has as its system PEG-3. The assay is described as follows: Peg3 promoter luciferase inhibitors, potency, dose response, cell-based, HeLa, CREF/GAPDH counter-screen panel (AID 624167). Conditions: HeLa PEG-Prom luciferase reporter, overnight, CREF/GAPDH counter-screens. A general note: A counterscreen serves to expose hits that act by an unwanted route or on another target.
The next assay relates to Rat fibroblasts (CREF). The assay is described as above. Particulars: CREF/GAPDH counter-screens.
Assay [2] has as its target PEG-3 (UniProt Q6IN02). Described as above. Conditions: HeLa PEG-Prom luciferase reporter, overnight, CREF/GAPDH counter-screens, mean of runs. On the technique in general: A reporter such as luciferase makes a cellular process visible.
Experiment in assay [3]: as above
Particulars: CREF/GAPDH counter-screens; GAPDH; mean of runs.

The subject of the next assay is GAPDH. The description is as above. Conditions: CREF/GAPDH counter-screens.
[4] abbreviates: run 1, dose range 1, individual replicate IC50 per panel.
[5] abbreviates: run 2, dose range 1, individual replicate IC50 per panel.

PEG-3 (UniProt Q6IN02), sequence (Q6IN02 whole entry, looked up): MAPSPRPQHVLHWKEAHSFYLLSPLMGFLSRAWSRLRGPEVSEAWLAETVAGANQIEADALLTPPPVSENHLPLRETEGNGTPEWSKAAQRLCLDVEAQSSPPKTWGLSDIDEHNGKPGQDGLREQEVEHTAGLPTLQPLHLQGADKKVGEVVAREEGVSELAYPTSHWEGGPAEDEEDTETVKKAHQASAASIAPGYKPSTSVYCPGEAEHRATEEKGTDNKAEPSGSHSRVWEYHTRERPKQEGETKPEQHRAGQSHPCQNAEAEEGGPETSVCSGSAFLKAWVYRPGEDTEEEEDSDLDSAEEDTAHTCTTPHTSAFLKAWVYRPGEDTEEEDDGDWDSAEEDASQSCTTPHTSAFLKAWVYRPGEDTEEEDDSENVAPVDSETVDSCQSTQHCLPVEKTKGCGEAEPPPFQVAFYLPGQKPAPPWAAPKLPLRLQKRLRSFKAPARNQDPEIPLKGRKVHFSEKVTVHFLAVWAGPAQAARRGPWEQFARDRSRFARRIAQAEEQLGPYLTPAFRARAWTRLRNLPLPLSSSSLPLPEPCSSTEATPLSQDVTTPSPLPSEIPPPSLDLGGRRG

As to `Cc1nc(C)c(C(=O)N/N=C/c2cc(Br)ccc2O)s1`, the IC50 with PEG-3 [1] (setting [4]) is 5.65 µM; in the assay with PEG-3 [1] (setting [5]) it was greater than 100 µM; in the assay on Rat fibroblasts (CREF) (mean of runs), 64.9 µM (inactive); in the assay on Rat fibroblasts (CREF) (setting [4]) it was 52.3 µM; in the assay with Rat fibroblasts (CREF) (setting [5]) it was 77.5 µM; in assay [3], > 100 µM (inactive). Further, the IC50 in the assay with GAPDH (setting [4]) and in the assay with GAPDH (setting [5]) was greater than 100 µM each time. In addition, the IC50 entry at PEG-3 [2] was “inactive”.
On to `CC(=O)c1sc2c(c1OC(=O)c1ccc(Cl)cc1Cl)c(=O)n(-c1ccccc1)c(=S)n2-c1ccccc1`, for which the IC50 was 11.2 µM in the assay on PEG-3 [1] (setting [4]); 9.26 µM in the assay on PEG-3 [1] (setting [5]); > 100 µM (inactive) with Rat fibroblasts (CREF) (mean of runs); greater than 100 µM in the assay with Rat fibroblasts (CREF) (setting [4]); greater than 100 µM with Rat fibroblasts (CREF) (setting [5]); 10.2 µM on PEG-3 [2]. Also, the IC50 was 4.7 µM in assay [3], 2.85 µM in the assay on GAPDH (setting [4]) and 6.56 µM in the assay on GAPDH (setting [5]).
Take `CCCCCCCNC(=O)C1(CC2CC(c3cccc(Br)c3)=NO2)CCNCC1` (centres undefined): the IC50 with PEG-3 [1] (setting [4]) was 8.05 µM; in the assay on PEG-3 [1] (setting [5]) it was 6.76 µM; with Rat fibroblasts (CREF) (mean of runs) it was 16.5 µM; in the assay on Rat fibroblasts (CREF) (setting [4]), 16.1 µM; in the assay on Rat fibroblasts (CREF) (setting [5]) it was 16.9 µM; on PEG-3 [2], 7.4 µM. Moreover, the IC50 is 15.4 µM in assay [3], 13.5 µM with GAPDH (setting [4]) and 17.3 µM in the assay with GAPDH (setting [5]).
Consider `Cc1ccsc1/C=N/Nc1cccc(C(=O)O)c1`, for which the IC50 in the assay on PEG-3 [1] (setting [4]) was 1.27 µM; in the assay on PEG-3 [1] (setting [5]) it was 1.92 µM; with Rat fibroblasts (CREF) (mean of runs) it was > 100 µM (inactive); in the assay on Rat fibroblasts (CREF) (setting [4]), greater than 100 µM; in the assay with Rat fibroblasts (CREF) (setting [5]), greater than 100 µM; at PEG-3 [2], 1.6 µM. The results for the IC50 (in assay [3]; in the assay on GAPDH (setting [4]); in the assay with GAPDH (setting [5])) were 5.35 µM, 3.26 µM and 7.43 µM, respectively.
As to `CN(C)S(=O)(=O)c1ccc(-c2csc(N/N=C/c3ccc(O)cc3)n2)cc1`, the IC50 in the assay with PEG-3 [1] (setting [4]) is 8.68 µM; in the assay on PEG-3 [1] (setting [5]) it was 7.77 µM; in the assay on Rat fibroblasts (CREF) (mean of runs) it was 9.81 µM; in the assay with Rat fibroblasts (CREF) (setting [4]), 9.26 µM; with Rat fibroblasts (CREF) (setting [5]), 10.4 µM; on PEG-3 [2] it was 8.22 µM. Besides, the half-maximal inhibitory concentration (IC50) in assay [3] was 12.1 µM; in the assay on GAPDH (setting [4]), 11.7 µM; in the assay with GAPDH (setting [5]) it was 12.5 µM.
For the molecule `COC(COC(N)=O)C1=C(N2CC2)C(=O)C(C)=C(N2CC2)C1=O` (centres undefined), the IC50 is 1.29 µM in the assay with PEG-3 [1] (setting [4]); 0.583 µM with PEG-3 [1] (setting [5]); 4.51 µM in the assay with Rat fibroblasts (CREF) (mean of runs); 8.05 µM in the assay with Rat fibroblasts (CREF) (setting [4]); 0.958 µM with Rat fibroblasts (CREF) (setting [5]); 0.938 µM at PEG-3 [2]. Moreover, the IC50 in assay [3] is 15 µM; in the assay with GAPDH (setting [4]) it was 10.2 µM; in the assay with GAPDH (setting [5]) it was 19.8 µM.
In the case of `C(=N\Nc1ccc2ccccc2n1)/c1ccc2c(c1)OCCO2`, the IC50 in the assay on PEG-3 [1] (setting [4]) is 5.86 µM; in the assay on PEG-3 [1] (setting [5]) it was 8.13 µM; with Rat fibroblasts (CREF) (mean of runs), 51.2 µM (inactive); with Rat fibroblasts (CREF) (setting [4]), 2.43 µM; in the assay on Rat fibroblasts (CREF) (setting [5]), greater than 100 µM; at PEG-3 [2], 6.99 µM. Moreover, the IC50 was 3.75 µM in assay [3], 6.78 µM in the assay with GAPDH (setting [4]) and 0.719 µM with GAPDH (setting [5]).
As for `Cc1cc(C)c2sc(NNC(=O)c3ccc(S(=O)(=O)N4CCc5ccccc5C4)cc3)nc2c1`, the IC50 in the assay on PEG-3 [1] (setting [4]) is 0.939 µM; in the assay on PEG-3 [1] (setting [5]), 2.04 µM; in the assay with Rat fibroblasts (CREF) (mean of runs) it was > 100 µM (inactive); with Rat fibroblasts (CREF) (setting [4]) it was greater than 100 µM; in the assay on Rat fibroblasts (CREF) (setting [5]), greater than 100 µM; on PEG-3 [2] it was 1.49 µM. Further, the figures for the IC50 (in assay [3]; in the assay with GAPDH (setting [4]); in the assay on GAPDH (setting [5])) were 20.9 µM, 10.4 µM and 31.5 µM, respectively.
As to `CS(=O)(=O)c1ccc(-c2sc3ccccc3c2C#CCCO)cc1`, the IC50 is 14.3 µM in the assay on PEG-3 [1] (setting [4]); 0.572 µM in the assay on PEG-3 [1] (setting [5]); 32.3 µM in the assay with Rat fibroblasts (CREF) (mean of runs); 27.7 µM with Rat fibroblasts (CREF) (setting [4]); 36.9 µM in the assay with Rat fibroblasts (CREF) (setting [5]); 7.42 µM at PEG-3 [2]. For the same molecule, the IC50 in assay [3] is 28.9 µM; in the assay on GAPDH (setting [4]), 30.2 µM; in the assay on GAPDH (setting [5]), 27.7 µM.
For the molecule `CC1CC(C)C(=O)C(C(CC2CC(=O)NC(=O)C2)OC(=O)CC(=O)c2ccccc2)C1` (centres undefined), the IC50 is 1.78 µM in the assay with PEG-3 [1] (setting [4]); 0.549 µM in the assay on PEG-3 [1] (setting [5]); > 100 µM (inactive) in the assay on Rat fibroblasts (CREF) (mean of runs); greater than 100 µM in the assay with Rat fibroblasts (CREF) (setting [4]); greater than 100 µM with Rat fibroblasts (CREF) (setting [5]); 1.16 µM at PEG-3 [2]. The half-maximal inhibitory concentration (IC50) in assay [3] was 1.01 µM; with GAPDH (setting [4]), 0.605 µM; in the assay with GAPDH (setting [5]), 1.42 µM.
As for `Cc1ccc(OCC(=O)c2cc(C)n(Cc3ccco3)c2C)c([N+](=O)[O-])n1`, the IC50 in the assay with PEG-3 [1] (setting [4]) is 6.5 µM; in the assay on PEG-3 [1] (setting [5]), 7.13 µM; with Rat fibroblasts (CREF) (mean of runs), > 100 µM (inactive); in the assay with Rat fibroblasts (CREF) (setting [4]), greater than 100 µM; in the assay on Rat fibroblasts (CREF) (setting [5]), greater than 100 µM; on PEG-3 [2], 6.81 µM. The IC50 was 13 µM in assay [3], 7.31 µM with GAPDH (setting [4]) and 18.7 µM in the assay on GAPDH (setting [5]).
